Measurements published in ChEMBL document CHEMBL1140078 (J Med Chem, 2008).

Legend:
in vitro [1] = settings: CD1, mouse, liver microsomes
Description: Metabolic stability in CD1 mouse liver microsomes at 10 uM after 30 mins

[2] = biological target: Phosphatidylinositol 4,5-bisphosphate 3-kinase catalytic subunit alpha isoform (Homo sapiens, UniProt P42336)
Description: Inhibition of human recombinant PI3K p110alpha expressed in Sf9 cells coexpressing p85alpha by radiometric scintillation proximity assay

in vitro [3] = settings: human, liver microsomes
Description: Metabolic stability in human liver microsomes at 10 uM after 30 mins

in vivo [4] = settings: CD1, mouse, po, 10 mg/kg
in vivo [5] = settings: rat, po, 10 mg/kg
[6] = Aqueous solubility at pH 7.4 by turbidimetric assay; format: physicochemical

Phosphatidylinositol 4,5-bisphosphate 3-kinase catalytic subunit alpha isoform, sequence (P42336 whole entry, canonical isoform): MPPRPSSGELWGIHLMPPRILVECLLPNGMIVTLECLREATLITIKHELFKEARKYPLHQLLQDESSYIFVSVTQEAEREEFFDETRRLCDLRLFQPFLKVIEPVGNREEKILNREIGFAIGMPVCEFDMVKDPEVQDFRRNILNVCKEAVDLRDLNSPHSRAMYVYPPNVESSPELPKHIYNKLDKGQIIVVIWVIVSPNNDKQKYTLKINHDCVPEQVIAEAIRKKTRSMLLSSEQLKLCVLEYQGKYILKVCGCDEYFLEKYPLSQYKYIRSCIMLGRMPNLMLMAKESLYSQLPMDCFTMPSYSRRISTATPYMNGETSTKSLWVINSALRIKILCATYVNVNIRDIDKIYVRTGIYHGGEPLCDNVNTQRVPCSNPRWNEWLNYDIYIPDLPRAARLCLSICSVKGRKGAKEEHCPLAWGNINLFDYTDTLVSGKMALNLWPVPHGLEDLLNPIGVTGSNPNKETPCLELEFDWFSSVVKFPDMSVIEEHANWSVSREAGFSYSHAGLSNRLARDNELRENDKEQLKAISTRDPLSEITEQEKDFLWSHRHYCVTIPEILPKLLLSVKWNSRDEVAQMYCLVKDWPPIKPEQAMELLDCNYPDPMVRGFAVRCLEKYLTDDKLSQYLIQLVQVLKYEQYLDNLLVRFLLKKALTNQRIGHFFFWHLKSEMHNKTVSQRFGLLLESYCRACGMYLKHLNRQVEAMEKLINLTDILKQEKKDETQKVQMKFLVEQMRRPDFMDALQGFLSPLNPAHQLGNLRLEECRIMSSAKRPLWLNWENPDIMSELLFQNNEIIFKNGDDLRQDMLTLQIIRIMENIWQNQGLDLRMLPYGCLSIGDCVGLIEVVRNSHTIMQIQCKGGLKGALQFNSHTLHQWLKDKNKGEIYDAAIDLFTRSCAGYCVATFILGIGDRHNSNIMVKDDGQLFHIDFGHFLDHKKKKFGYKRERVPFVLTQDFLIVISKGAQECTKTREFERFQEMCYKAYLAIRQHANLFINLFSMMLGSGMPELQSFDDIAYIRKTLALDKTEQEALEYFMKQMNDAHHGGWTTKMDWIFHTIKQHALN

remaining at 0.5 h, 10 µM (in vitro [1]) [%]	IC50 [2] [µM]	remaining at 0.5 h, 10 µM (in vitro [3]) [%]	bioavailability (in vivo [4]) [%]	bioavailability (in vivo [5]) [%]	solubility kinetic [6] [µM]	Structure (SMILES)
64						Cc1cc2nc(-c3cccc(O)c3)nc(N3CCOCC3)c2s1
5	0.021	51				Cc1csc2c(N3CCOCC3)nc(-c3cccc(O)c3)nc12
81		81	31	37		CN1CCN(Cc2cc3nc(-c4cccc5[nH]ncc45)nc(N4CCOCC4)c3s2)CC1
32		74	11			CN(C)Cc1cc2nc(-c3cccc(O)c3)nc(N3CCOCC3)c2s1
13		57			> 100	COCCN(C)Cc1cc2nc(-c3cccc(O)c3)nc(N3CCOCC3)c2s1
	2.45					c1cc2nc(-c3ccc4cn[nH]c4c3)nc(N3CCOCC3)c2s1
25		32				Oc1cccc(-c2nc(N3CCOCC3)c3sccc3n2)c1
90		90	7	0	> 100	OCCN1CCN(Cc2cc3nc(-c4cccc(O)c4)nc(N4CCOCC4)c3s2)CC1
85		85	10	2	> 100	CN1CCN(Cc2cc3nc(-c4cccc(O)c4)nc(N4CCOCC4)c3s2)CC1
